Our source for the EC50 and CC50 values is ChEMBL document CHEMBL4138146, “A Schmidt rearrangement-mediated synthesis of novel tetrahydro-benzo[1,4]diazepin-5-ones as potential anticancer and antiprotozoal agents” (Eur J Med Chem, 2017).

Each structure is given as a SMILES string. In brackets after ≈: the same amount, converted by molar mass.

Assay [1] concerns Leishmania panamensis. Description: Antileishmanial activity against EpiR/GFP fused Leishmania panamensis MHOM/CO/87/UA140 intracellular amastigotes infected in human […] cells after 72 hrs by flow cytometric method. It is filed as functional, organism-based. Particulars: MHOM/CO/87/UA140, 72 h. A general note: Flow cytometry measures light scatter and fluorescence of single cells or particles in a stream.

Assay [2] relates to Plasmodium falciparum. Description: Antimalarial activity against chloroquine-sensitive Plasmodium falciparum 3D7 incubated for 48 hrs by malstat reagent based LDH release assay. It is filed as functional, organism-based. The settings on record: 3D7, 48 h. On the technique in general: LDH leaks from cells whose membrane has failed.
In assay [3] the test system is U-937. Description: Cytotoxicity against human U937 cells after 72 hrs by MTT assay. It is filed as functional. Particulars: U-937, 72 h, read-out: LC50 (the source's name). Background: Formazan colour is commonly taken as a measure of viable cells.
Assay [4] relates to Trypanosoma cruzi. Description: Antitrypanosomal activity against Trypanosoma cruzi Tulahuen amastigote forms infected in human U937 cells after 72 hrs by beta-galactosidase reporter gene assay. It is filed as functional, organism-based. Particulars: U-937, 72 h.

What is called EC50 is the concentration at which the effect is half-maximal. A higher EC50 goes with a less potent agent. Turning to `O=C1NCC(c2cc3cc(Cl)ccc3[nH]c2=O)Nc2ccccc21` (configuration not stated), the results for the EC50 in assay [1], in assay [2] and in assay [4] were 19.4 µg/mL (≈ 57.2 µM), 43.2 µg/mL (≈ 127 µM) and 123 µg/mL (≈ 361 µM), respectively. Moreover, the CC50 in assay [3] was 192 µg/mL (≈ 566 µM).
As to `O=C1NCC(c2cc3cc(Br)ccc3[nH]c2=O)Nc2ccccc21` (configuration not stated), the EC50 is 15.3 µg/mL (≈ 39.7 µM) in assay [1] and 13.6 µg/mL (≈ 35.4 µM) in assay [2]. Further, the CC50 in assay [3] came to 57 µg/mL (≈ 148 µM).
With `CCCCOc1nc2ccc(Br)cc2cc1C1CNC(=O)c2ccccc2N1` (configuration not stated), the EC50 in assay [1] was found to be 34.2 µg/mL (≈ 77.6 µM); in assay [2], 50.8 µg/mL (≈ 115 µM). Moreover, the CC50 in assay [3] was > 200 µg/mL.
Turning to `C[C@@H]1[C@H](O)[C@@H](C)/C=C/C=C/C=C/C=C/C=C/C=C/C=C/[C@H](O[C@@H]2O[C@H](C)[C@@H](O)[C@H](N)[C@@H]2O)C[C@@H]2O[C@](O)(C[C@@H](O)C[C@@H](O)[C@H](O)CC[C@@H](O)C[C@@H](O)CC(=O)O[C@H]1C)C[C@H](O)[C@H]2C(=O)O` [AMPHOTERICIN B], the CC50 in assay [3] was found to be 36 µg/mL (≈ 39 µM).
For `O=C(Cn1ccnc1[N+](=O)[O-])NCc1ccccc1` [BENZNIDAZOLE], the CC50 in assay [3] is 180 µg/mL (≈ 692 µM).
